From PubChem BioAssay AID1963970 (Molecular Pharmacology Branch, DTP, NCI, 2024)
pIC50: −log10 of the molar value.

Tested on: 931267-113-T-J1-PDC multicell spheroid viability
Assay: Anticancer human tumor 931267-113-T-J1-PDC patient-derived colon adenocarcinoma cell line growth inhibition [PI3K]
Details: for pIC50: curve of first compound; for viability, T/C: stronger effect = lower value; active = viability on the fitted dose curve at most 10% of control; inactive = the rest
Description: Combinatorial screen of targeted agents with the PI3K inhibitors inavolisib, alpelisib, duvelisib, and copanlisib in multi-cell type tumor spheroids
A high-throughput screen of multi-cell type tumor spheroids was designed to identify active combinations of targeted small molecules and PI3K pathway inhibitors. Complex spheroids include a stromal component modeled by human endothelial cells (HUVEC) and fibroblasts modeled by human mesenchymal stem cells (MSCs). The concentration ranges selected for each drug and investigational agent were based upon clinically achievable concentrations if the clinical Cmax of the agent was known.
Compounds. The drugs and investigational agents: inavolisib (NSC800729), alpelisib (NSC765974), duvelisib (NSC772469), copanlisib (NSC816437), ipatasertib (NSC767898), afuresertib (NSC778305), talazoparib (NSC767125), sapanisertib (NSC764658), selumetinib (NSC741078), tovorafenib (DAY101, NSC766906), vemurafenib (NSC761431), ravoxertinib (NSC781343), sotorasib (NSC818433), MRTX1133 (NSC 836407), abemaciclib (NSC 768073), palbociclib (NSC758247), venetoclax (NSC 766270), SY5609 (NSC837396), enzalutamide (NSC755605), and darolutamide (NSC825331), were obtained from the National Cancer Institute (NCI) Developmental Therapeutics Program Chemical Repository. The FDA-approved anticancer drug set is available from the NCI Developmental Therapeutics Program. […] The stock solutions were prepared in dimethyl sulfoxide (DMSO, Sigma-Aldrich, St. Louis, MO, cat. D2650) at 800-fold the tested concentration and stored at -70 degrees C prior to their use. All drugs and investigational agents were tested over a range starting from a high concentration at or near the clinical Cmax and decreasing in half-log increments. If the clinical Cmax for an agent had not been determined, the highest concentration tested was 10 microM.
Cell Culture. All cells were maintained in an incubator at 37 degrees C and 5% CO2 with 95% humidity. The PDC lines were cultured according to standard operating procedures established by the NCI PDMR (https://pdmr.cancer.gov/sops/default.htm). All PDCs were thawed and cultured in Matrigel-coated flasks prepared with a working solution of 1X Ham's F-12 nutrient mix, without supplementation (Invitrogen, Waltham, MA, cat. 11765054), 100 U/mL penicillin-streptomycin (Invitrogen, cat. 15140122), and 2.5% Matrigel (Corning Inc., Corning, NY, cat. 354248) for the first three passages. The 354836-022-R-J1-PDC, 475296-252-R-J1-PDC, and 997726-040-R-J2-PDC lines were cultured in 6A media, which includes advanced DMEM/F-12 (Thermo Fisher Scientific, cat. 12634028), 10 mM HEPES (Thermo Fisher Scientific, cat. 15630080), 1X GlutaMAX supplement (Thermo Fisher Scientific, cat. 35050061), 0.1 mg/mL primocin (InvivoGen, San Diego, CA, cat. ant-pm-2), 10% defined fetal bovine serum, heat inactivated (HyClone Laboratories Inc., Logan, UT, cat. SH30070.03HI), 50% L-WRN conditioned media (ATCC, cat. CRL-3276), 1.25 mM N-Acetyl-L-cysteine (Sigma-Aldrich, cat. A9165), 10 mM nicotinamide (Sigma-Aldrich, cat. N0636), 1X B-27 supplement (Thermo Fisher Scientific, cat. 17504044), 1X N-2 supplement (Thermo Fisher Scientific, cat. 17502048), and 10 microM Y-27632 dihydrochloride (Tocris Bioscience, Bristol, United Kingdom, cat. 1254). The 624824-186-R-J2-PDC line was cultured in 6C/Colon 1B media, which includes all 6A media components plus 50 ng/mL human EGF recombinant protein (Thermo Fisher Scientific, cat. PHG0311). […]

[1] = second compound 0.0316 µM, first compound 0.0316 µM
[2] = second compound 0.0316 µM, first compound 0.1 µM
[3] = second compound 0.1 µM, first compound 0.0316 µM
[4] = second compound 0.1 µM, first compound 0.1 µM
[5] = second compound 0.316 µM, first compound 0.0316 µM
[6] = second compound 0.316 µM, first compound 0.1 µM
[7] = second compound 1 µM, first compound 0.0316 µM
[8] = second compound 1 µM, first compound 0.1 µM
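Also: viability read 7 days after compound addition.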

CC(C)n1nc(-c2ccc3oc(N)nc3c2)c2c(N)ncnc21 + COc1c(OCCCN2CCOCC2)ccc2c3n(c(=NC(=O)c4cnc(N)nc4)nc12)CCN3
inactive: viability, T/C (second compound 0.00316 µM, first compound 0.000316 µM) 90.4% | viability, T/C (second compound 0.00316 µM, first compound 0.001 µM) 97.9% | viability, T/C (second compound 0.00316 µM, first compound 0.00316 µM) 94.1% | viability, T/C (second compound 0.00316 µM, first compound 0.01 µM) 96% | viability, T/C (second compound 0.00316 µM, first compound 0.0316 µM) 88.6% | viability, T/C (second compound 0.00316 µM, first compound 0.1 µM) 47.3% | viability, T/C (second compound 0.01 µM, first compound 0.000316 µM) 96.2% | viability, T/C (second compound 0.01 µM, first compound 0.001 µM) 90.2% | viability, T/C (second compound 0.01 µM, first compound 0.00316 µM) 88.1% | viability, T/C (second compound 0.01 µM, first compound 0.01 µM) 82.3% | viability, T/C (second compound 0.01 µM, first compound 0.0316 µM) 75.4% | viability, T/C (second compound 0.01 µM, first compound 0.1 µM) 47.2% | viability, T/C (second compound 0.0316 µM, first compound 0.000316 µM) 90.5% | viability, T/C (second compound 0.0316 µM, first compound 0.001 µM) 82.1% | viability, T/C (second compound 0.0316 µM, first compound 0.00316 µM) 80.5% | viability, T/C (second compound 0.0316 µM, first compound 0.01 µM) 72.4% | viability, T/C [1] 60.3% | viability, T/C [2] 44.6% | viability, T/C (second compound 0.1 µM, first compound 0.000316 µM) 76.5% | viability, T/C (second compound 0.1 µM, first compound 0.001 µM) 66% | viability, T/C (second compound 0.1 µM, first compound 0.00316 µM) 64.4% | viability, T/C (second compound 0.1 µM, first compound 0.01 µM) 60.9% | viability, T/C [3] 51.8% | viability, T/C [4] 34.5% | viability, T/C (second compound 0.316 µM, first compound 0.000316 µM) 55.5% | viability, T/C (second compound 0.316 µM, first compound 0.001 µM) 50.8% | viability, T/C (second compound 0.316 µM, first compound 0.00316 µM) 46.3% | viability, T/C (second compound 0.316 µM, first compound 0.01 µM) 43.1% | viability, T/C [5] 36% | viability, T/C [6] 29% | viability, T/C (second compound 1 µM, first compound 0.000316 µM) 37.1% | viability, T/C (second compound 1 µM, first compound 0.001 µM) 35.8% | viability, T/C (second compound 1 µM, first compound 0.00316 µM) 35.3% | viability, T/C (second compound 1 µM, first compound 0.01 µM) 32.1% | viability, T/C [7] 27.5% | viability, T/C [8] 22.2%
7.16: pIC50 (second compound 0.0316 µM)
8.83: pIC50 (second compound 0.316 µM)
7.04: pIC50 (second compound 0.01 µM)
7.51: pIC50 (second compound 0.1 µM)
> 9.50: pIC50 (second compound 1 µM)
7.03: pIC50 (second compound 0.00316 µM)

C[C@@H](NC(=O)c1ncnc(N)c1Cl)c1ncc(C(=O)Nc2cc(C(F)(F)F)c(Cl)cn2)s1 + Cc1nc(NC(=O)N2CCCC2C(N)=O)sc1-c1ccnc(C(C)(C)C(F)(F)F)c1
< 5.00: pIC50 (second compound 0.0316 µM) | pIC50 (second compound 0.1 µM) | pIC50 (second compound 0.316 µM)
5.86: pIC50 (second compound 10 µM)
5.27: pIC50 (second compound 3.16 µM)
5.01: pIC50 (second compound 1 µM)
inactive: viability, T/C [1] 110% | viability, T/C [2] 106% | viability, T/C (second compound 0.0316 µM, first compound 0.316 µM) 110% | viability, T/C (second compound 0.0316 µM, first compound 1 µM) 116% | viability, T/C (second compound 0.0316 µM, first compound 3.16 µM) 97.5% | viability, T/C (second compound 0.0316 µM, first compound 10 µM) 82.8% | viability, T/C [3] 103% | viability, T/C [4] 107% | viability, T/C (second compound 0.1 µM, first compound 0.316 µM) 113% | viability, T/C (second compound 0.1 µM, first compound 1 µM) 111% | viability, T/C (second compound 0.1 µM, first compound 3.16 µM) 88.7% | viability, T/C (second compound 0.1 µM, first compound 10 µM) 72.5% | viability, T/C [5] 106% | viability, T/C [6] 96.4% | viability, T/C (second compound 0.316 µM, first compound 0.316 µM) 106% | viability, T/C (second compound 0.316 µM, first compound 1 µM) 95.7% | viability, T/C (second compound 0.316 µM, first compound 3.16 µM) 74.6% | viability, T/C (second compound 0.316 µM, first compound 10 µM) 57.5% | viability, T/C [7] 93.7% | viability, T/C [8] 93.2% | viability, T/C (second compound 1 µM, first compound 0.316 µM) 99.2% | viability, T/C (second compound 1 µM, first compound 1 µM) 81.1% | viability, T/C (second compound 1 µM, first compound 3.16 µM) 71.2% | viability, T/C (second compound 1 µM, first compound 10 µM) 49.5% | viability, T/C (second compound 3.16 µM, first compound 0.0316 µM) 83.6% | viability, T/C (second compound 3.16 µM, first compound 0.1 µM) 91.8% | viability, T/C (second compound 3.16 µM, first compound 0.316 µM) 83.3% | viability, T/C (second compound 3.16 µM, first compound 1 µM) 79.8% | viability, T/C (second compound 3.16 µM, first compound 3.16 µM) 62.6% | viability, T/C (second compound 3.16 µM, first compound 10 µM) 35% | viability, T/C (second compound 10 µM, first compound 0.0316 µM) 72.2% | viability, T/C (second compound 10 µM, first compound 0.1 µM) 63.3% | viability, T/C (second compound 10 µM, first compound 0.316 µM) 63.8% | viability, T/C (second compound 10 µM, first compound 1 µM) 52% | viability, T/C (second compound 10 µM, first compound 3.16 µM) 41.9% | viability, T/C (second compound 10 µM, first compound 10 µM) 16.9%
